Calls of active or inactive are those of the source. A value given as a limit tells only on which side of the number the result lay.

A short description of test [1]: alpha-synuclein stem-loop luciferase translation blockers – H4 neuroglioma cells, luminescence, confirmation (AID 1988). In kind it is functional, cell-based.
Test [2] is described as follows: luciferase reporter signal suppression in cells – H4 neuroglioma cells, luminescence, dose response (AID 1990). It counts as functional, cell-based.
Test [3] can be described thus: Luminescence Cell-Based Dose Response HTS to Identify Inhibitors of 5'UTR Stem-Loop Driven Prion Protein mRNA Translation in H4 Neuroglioblastoma Cells. [Related pubchem assays: 1827 (Project Summary), 1813 (Primary HTS)]. It counts as functional.
Test [4] in a line: Luminescence Cell-Based Dose Retest to Confirm Inhibitors of Cancer Stem Cells. [Related pubchem assays (depositor defined):AID2717, AID2721]. In kind it is functional. The following applies: Homo sapiens.
In the next test the target is Cytochrome P450 2C9 (Homo sapiens, UniProt P11712).
Test [5] deals with T1, Heat shock factor protein 1 (Mus musculus, UniProt P38532).
T1 sequence (P38532 whole entry): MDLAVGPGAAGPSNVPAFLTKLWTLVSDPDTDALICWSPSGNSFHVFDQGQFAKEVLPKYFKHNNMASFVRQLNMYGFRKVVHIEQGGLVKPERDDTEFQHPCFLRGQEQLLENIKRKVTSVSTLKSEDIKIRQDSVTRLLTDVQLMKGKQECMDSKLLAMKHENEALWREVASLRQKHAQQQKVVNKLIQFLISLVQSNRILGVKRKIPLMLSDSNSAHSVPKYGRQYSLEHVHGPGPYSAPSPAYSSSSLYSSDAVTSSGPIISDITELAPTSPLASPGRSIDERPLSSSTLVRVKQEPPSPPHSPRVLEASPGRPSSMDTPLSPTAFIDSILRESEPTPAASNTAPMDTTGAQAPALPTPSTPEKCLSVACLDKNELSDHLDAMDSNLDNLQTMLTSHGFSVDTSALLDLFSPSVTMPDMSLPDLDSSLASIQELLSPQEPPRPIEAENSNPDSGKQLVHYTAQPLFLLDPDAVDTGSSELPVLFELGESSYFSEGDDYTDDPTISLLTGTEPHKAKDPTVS
Nature of the test: decrease of HSF1-responsive luciferase luminescence – cell-based, NIH3T3, dose retest, confirmation (AID 2382).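 Also: NIH3T3 fibroblasts with HSF1-driven luciferase reporter stressed by proteasome inhibitor MG132; luminescence from HSF1-driven luciferase expression after 8 hours of MG132 stress.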 It counts as functional.

For test [6], the target named is T2, Rac GTPase-activating protein 1 (Homo sapiens, UniProt Q9H0H5).
T2 sequence (Q9H0H5 whole entry): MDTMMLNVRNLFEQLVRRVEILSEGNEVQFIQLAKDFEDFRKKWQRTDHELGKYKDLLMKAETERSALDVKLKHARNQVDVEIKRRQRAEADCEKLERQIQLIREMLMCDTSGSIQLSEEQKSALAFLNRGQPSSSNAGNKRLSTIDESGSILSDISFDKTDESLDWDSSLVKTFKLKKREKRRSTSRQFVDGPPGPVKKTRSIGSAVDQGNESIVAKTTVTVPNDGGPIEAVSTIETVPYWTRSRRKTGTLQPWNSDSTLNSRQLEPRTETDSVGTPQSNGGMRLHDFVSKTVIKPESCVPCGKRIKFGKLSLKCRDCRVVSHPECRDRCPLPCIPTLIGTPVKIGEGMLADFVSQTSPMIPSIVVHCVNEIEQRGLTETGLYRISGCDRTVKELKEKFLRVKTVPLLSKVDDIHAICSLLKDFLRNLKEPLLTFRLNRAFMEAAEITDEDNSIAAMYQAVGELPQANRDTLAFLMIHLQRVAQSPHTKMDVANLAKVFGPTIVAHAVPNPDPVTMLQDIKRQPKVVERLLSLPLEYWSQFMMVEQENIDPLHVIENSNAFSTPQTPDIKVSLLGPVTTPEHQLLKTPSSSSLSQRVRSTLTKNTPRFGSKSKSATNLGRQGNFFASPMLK
As to the kind of experiment: blockers of MgcRacGAP-driven Rac1 GTP hydrolysis – biochemical, ADP Hunter fluorescence, primary and confirmatory, confirmation (AID 624330). It counts as functional.

Test [7] in a line: viability of uninfected HEp-2 cells – cell-based, HTS, cytotoxicity control for RSV inhibitor project, dose response (AID 2410). It counts as functional. The following applies: human respiratory syncytial virus.
The nature of test [8]: viability of PTEN-deleted HCT116 cells – cell-based, HCT116 PTEN knockout, dose response (AID 1047).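 Also: HCT116 colon tumor cells with PTEN knocked out; cells exposed to compound for 60 hours before readout; potency for loss of cell viability measured by luminescence.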 It counts as functional.
Test [9] can be described thus: viability of HCT116 lacking mutant beta-catenin – cell-based, human colon tumor, dose response (AID 1045).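 Also: HCT116 colon tumor cells with beta catenin knocked out; cells exposed to compound for 60 hours.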 It counts as functional.
Test [10] in a line: NIH-3T3 fibroblast cytotoxicity, dose response, cytotoxicity control, cell-based, fluorescence, Alamar Blue, secondary assay (AID 2327).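 Also: NIH-3T3 mouse fibroblasts cultured with fluconazole at 8 µg/mL.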 In kind it is functional.
Test [11] is described as follows: NIH3T3 cell viability loss – ATP luminescence, mouse fibroblasts, counter-screen, dose response (AID 2010).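 Also: cells exposed to compound for about 90 hours before reading.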 In kind it is functional, cell-based. A general note: A counterscreen serves to expose hits that act by an unwanted route or on another target.
Test [12] in a line: Trypanosoma cruzi growth suppression in host cells – NIH3T3 host cells, beta-gal luminescence, confirmation (AID 2044).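 Also: intracellular parasites grown in NIH/3T3 mouse fibroblasts as host cells; luminescent beta-galactosidase reporter signal from transgenic T. cruzi replicating inside host cells; inhibitors lower the luminescence signal.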 It counts as functional, cell-based.
The next test deals with INS1. As to the kind of experiment: INS-1E survival protection against cytokine death – cell-based, luminescence, retest, dose response (AID 449756).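 Also: cell death triggered by IL-1 beta plus TNF-alpha plus IFN-gamma mixture; protective hits raise ATP signal compared with cytokine alone wells.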 To be noted: Rattus norvegicus. In kind it is functional.

Chain of Cytochrome P450 2C9 (P11712 whole entry): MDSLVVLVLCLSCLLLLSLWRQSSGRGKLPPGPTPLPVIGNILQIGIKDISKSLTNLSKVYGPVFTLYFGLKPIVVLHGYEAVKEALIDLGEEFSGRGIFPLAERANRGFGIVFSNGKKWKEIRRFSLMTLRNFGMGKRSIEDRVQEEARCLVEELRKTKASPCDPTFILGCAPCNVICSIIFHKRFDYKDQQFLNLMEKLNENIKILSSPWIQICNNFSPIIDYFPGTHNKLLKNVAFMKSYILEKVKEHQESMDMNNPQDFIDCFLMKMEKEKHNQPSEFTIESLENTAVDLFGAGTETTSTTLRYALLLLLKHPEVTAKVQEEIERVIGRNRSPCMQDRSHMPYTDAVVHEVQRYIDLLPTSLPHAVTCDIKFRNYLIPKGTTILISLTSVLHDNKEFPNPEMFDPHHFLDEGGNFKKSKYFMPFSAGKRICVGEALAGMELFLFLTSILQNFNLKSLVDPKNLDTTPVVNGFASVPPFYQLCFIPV

A word on the EC50: it is the concentration giving half of the maximal effect. In the case of `CCOc1ccc(C(=O)C[n+]2ccccc2C)cc1`, the EC50 in [1] and in test [2] was > 120 µM (not active) in each case.
By AC50 is commonly meant the midpoint of the concentration-response curve, whichever way the signal moves. As to `CCOC(=S)SCC(=O)Nc1nc(-c2ccc(Br)cc2)cs1`, the EC50 in test [1] is 5.28 µM (active); in test [2], 8.41 µM (active); in test [3], 8.99 µM (active). Further, in test [4], the half-maximal activity concentration (AC50) was 722 nM (active).
Consider `O=C(N/N=C/c1ccc(O)cc1)c1ccc(COc2cc(Cl)ccc2Cl)o1`, for which the AC50 at Cytochrome P450 2C9 was 6.31 µM (inconclusive).
As to `NC(=O)COc1ccc(-n2cnnn2)cc1`, the EC50 in test [5] was > 195 µM (not active).
As to `O=C(O)c1cccc(NC(=O)c2ccccc2NC(=O)c2ccccc2F)c1`, the EC50 in test [5] was > 195 µM (not active).
The same measure, in the same setting: the figure for `COc1cc(NC(=O)CN(C)S(=O)(=O)c2ccc3c(c2)CC(C)N3C(C)=O)cc(OC)c1` (centres undefined) is > 195 µM (not active).
The term IC50 denotes the midpoint of a concentration-inhibition curve. In the case of `CCCCc1nc2ccccc2c(NC(=O)CN2CCN(C)CC2)c1CCC`, in test [6], the IC50 was 50.3 µM (active).
What is called CC50 is the concentration that lowers cell viability or growth by half. On to `C=CCn1c(SCC(C)=O)nc2scc(-c3ccc(C)o3)c2c1=O`, for which the CC50 in test [7] was 13.5 µM (active).
For the molecule `CCOC(=O)c1c(NC(=O)C2=C(C)N=C(S)NC2c2ccc(F)cc2)sc(C)c1C` (centres undefined), the EC50 in test [1], in [2] and in test [3] was > 120 µM (not active) in each case.
With `Oc1ccc(C=NNc2nc3ccccc3s2)c(O)c1`, in [6], the IC50 was 88.4 µM (active).
`CCc1ccc2c(c1)c1nnc(NN)nc1n2CC`: the results for the EC50 in test [8] and in test [9] were 30.8 µM (active) and 31.1 µM (active), respectively.
With `Cc1ccc(N2NC3(CCN(C(N)=O)CC3)NC2=O)cc1`, the EC50 in test [10] is 28.6 µM (active).
`FC(F)(F)c1cccc(N2CCC(/N=C/N3CCCCCC3)=N2)c1`: the IC50 in test [6] is 56.4 µM (active).
Same read-out and setting: the figure for `COc1cc(/C=N/NC(=O)c2ccc3c(c2)OCO3)ccc1O` is 28.5 µM (active).
With `C/C(=N\Nc1ccc([N+](=O)[O-])cc1)c1ccc(N)cc1`, the half-maximal inhibitory concentration (IC50) in [6] is 109 µM (active).
Regarding `COc1ccc2cc(Br)ccc2c1CC(=O)NC1CC(C)(C)NC(C)(C)C1`, the results for the EC50 in [8] and in test [9] were 20.4 µM (active) and 20.8 µM (active), respectively.
Regarding `CC(=O)c1nn(-c2cccc(Br)c2)cc1C(=O)c1ccc(C)cc1`, the EC50 in test [10] is > 150 µM (inactive).
Take `CCOC(=O)Cn1nc(C)c(NC(=O)COc2ccc([N+](=O)[O-])cc2)c1C`: in test [5], the EC50 is > 195 µM (not active).
For the molecule `COc1ccc(Br)cc1CN1CCN(C(=O)c2ccc(F)cc2)CC1`, the IC50 in [6] was 212 µM (active).
Same read-out and setting: the value for `Oc1ccc(NCc2ccccc2OCc2ccccc2F)cc1` was 71.4 µM (active).
Take `Cc1c2c(nc3ccccc13)CCC(C)C2` (centres undefined): the CC50 in test [7] was > 50 µM (active).
Turning to `COc1cc(CCCN2CCNC[C@@H]2Cc2ccc(O)cc2)cc(OC)c1OC`, the EC50 in [5] is recorded as > 195 µM (not active).
Same read-out and setting: the value for `COc1ccc(Cl)cc1N(CC(=O)N1CCN(Cc2ccccc2)CC1)S(C)(=O)=O` was > 195 µM (not active).
On to `Cc1ccccc1N1C(=O)C(Oc2ccc(Cl)cc2)C1CNCCCOC(C)C` (centres undefined), for which the EC50 in [1] is > 120 µM (not active); in test [2] it was 27 µM (active); in test [3], 119 µM (active).
For `COc1ccc2nc(COC(=O)c3cccs3)c(C(C)=O)[n+]([O-])c2c1`, the EC50 in test [5] is given as > 195 µM (not active).
With `Nc1ccc(S(=O)(=O)Nc2cnc3ccccc3n2)cc1` [SULFAQUINOXALINE], the AC50 at Cytochrome P450 2C9 is 3.98 µM (inconclusive).
Consider `CN(C)S(=O)(=O)c1ccc(-c2csnn2)s1`, for which the EC50 in [5] is > 195 µM (not active).
Consider `Cc1nc(C(=O)O)nn1-c1ccc([N+](=O)[O-])cc1`, for which the EC50 in test [1] is > 120 µM (not active); in test [2], > 120 µM (not active); in [3] it was 118 µM (active).
For the molecule `Oc1c([C@H](Nc2ccccn2)c2ccccc2)ccc2cccnc12`, on Cytochrome P450 2C9, the AC50 was 6.31 µM (inconclusive).
In the case of `COc1cc(CNc2ncc(-c3ccc(Br)cc3)n2C)cc(OC)c1O`, in [6], the IC50 was 52 µM (active).
For `Oc1ccc(Cl)cc1-c1cc(C(F)(F)C(F)F)nc(-c2ccccc2)n1`, the EC50 in test [1], in [2] and in test [3] was > 120 µM (not active) throughout.
Take `Cc1ccc(C)c(OCC(O)CN2CCC(CN3C(=O)c4cccc5cccc(c45)C3=O)CC2)c1` (centres undefined): the values for the EC50 in test [8] and in [9] were 4.42 µM (active) and 4.8 µM (active), respectively.
On to `C=CCn1c(S)nnc1-c1cc2cccc(OC)c2o1`, for which the CC50 in [7] is 21.4 µM (active).
As to `Cc1cc(N)n(-c2ccc3ccccc3c2)n1`, the AC50 at Cytochrome P450 2C9 was 35.5 µM (inconclusive).
Regarding `COc1cc(C=O)ccc1OCCCOc1ccccc1C(=O)O`, the AC50 on Cytochrome P450 2C9 was 17.8 µM (inconclusive).
With `Cc1cccc(NC(=O)Nc2cccc(C#N)c2)n1`, the CC50 in [7] is > 50 µM (active).
Take `OC(COc1ccc2cc(Br)ccc2c1)CN1CCCC1` (centres undefined): the EC50 in test [11] is 11.5 µM (active); in [8] it was 17 µM (active); in test [9] it was 15.6 µM (active); in test [12], 3.4 µM (active).
For `Cn1cccc1C(=O)NC(=O)COC(=O)C12CC3CC(CC(O)(C3)C1)C2`, the half-maximal effective concentration (EC50) in test [5] is 0.372 µM (active).
As for `CCc1ccc(/C(C)=N\Nc2ccc([N+](=O)[O-])cc2)cc1`, the EC50 in test [10] was > 160 µM (inactive).
Consider `N#CC1=C(N)Oc2cc(O)ccc2C1C1CCCCC1` (centres undefined), for which the EC50 in [8] was 12.1 µM (active); in test [9], 13.2 µM (active).
Consider `CCc1ccc(-c2cc(C(=O)NCCCn3ccnc3)c3ccccc3n2)s1`, for which the cytotoxic concentration (CC50) in [7] was 28.4 µM (active).
For the molecule `CN(C)c1ccc(/C=N/N2CCN(Cc3ccccc3Cl)CC2)cc1`, the IC50 in test [6] is 69.6 µM (active).
`CCOc1cc(C(=O)NCC(C)(C)CNC(=O)c2cc(OCC)c(OCC)c(OCC)c2)cc(OCC)c1OCC`: the 50% cytotoxic concentration (CC50) in test [7] was 27.7 µM (active).
On to `O=c1c2ccccc2nc(CSc2nnnn2-c2ccccc2)n1-c1ccccc1`, for which the EC50 in test [8] was 18.1 µM (active); in test [9], 17.6 µM (active).
In the case of `COc1ccc(O)c(C2=Nc3ccccc3N=C(c3cccs3)C2)c1`, in test [5], the EC50 was > 195 µM (not active).
Turning to `COc1ccc(CN2CCN(Cc3c[nH]c4ccccc34)CC2)c(OC)c1`, in test [6], the IC50 was 104 µM (active).
For the molecule `CC(=O)NC(=S)Nc1ccc(-c2nc3ccc(C)cc3s2)cc1`, the EC50 is 50 µM (active) in [8] and 112 µM (active) in [9].
For `CC(=O)O/N=C/c1c(NCc2ccccc2)nc2c(C)cccn2c1=O`, the CC50 in [7] was 31.1 µM (active).
For the molecule `CC1=CC(C)(C)Nc2ccccc21`, the EC50 is > 60 µM (not active) in [11]; > 120 µM (not active) in test [1]; > 120 µM (not active) in test [2]; > 120 µM (not active) in [3]; 4.5 µM (active) in test [12].
For `COc1ccccc1NS(=O)(=O)c1ccc(C)c(C(N)=O)c1`, the EC50 in test [5] is reported as > 195 µM (not active).
As to `COc1ccc(C2/C=C\CN(C(=O)Nc3ccc(C(F)(F)F)cc3)CC(=O)N2Cc2ccc(F)cc2)cc1` (centres undefined), in the test on INS1, the AC50 is 6.64 µM (active). Further, the values for the EC50 in test [1], in test [2] and in test [3] were 10.8 µM (active), 10.2 µM (active) and > 120 µM (not active), respectively.
